Data reported in ChEMBL document CHEMBL1909294, “Translating clinical findings into knowledge in drug safety evaluation--drug induced liver injury prediction system (DILIps)” (PLoS Comput Biol, 2011).

Columns and labels:
Hepatotoxicity [1] = system: Hepatotoxicity;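 for HepSE bilirubinemia: bilirubinemia hepatic side effect score drawn from the DILIps training data, a prediction system for drug-induced liver injury; call rule not given here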;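 for HepSE cholecystitis: Cholecystitis-related hepatic side effect score drawn from the DILIps (drug-induced liver injury prediction) training data set; call rule not given here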;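 for HepSE cholelithiasis: hepatic side effect score for cholelithiasis, drawn from the DILIps training data for predicting drug-induced liver injury; call rule not given here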;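 for HepSE cirrhosis: cirrhosis hepatic side effect score taken from the DILIps (drug-induced liver injury prediction) training set; call rule not given here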;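 for HepSE elevated liver function tests: hepatic side effect score for raised liver function tests, as recorded in the DILIps training set used for predicting drug-induced liver injury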; for HepSE hepatic failure: call rule not given here;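 for HepSE hepatomegaly: hepatic side effect score for hepatomegaly, taken from the training set of the DILIps drug-induced liver injury prediction system; call rule not given here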
Hepatotoxicity [2] = system: Hepatotoxicity; remark: listed apart in the source;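 for HepSE bilirubinemia: bilirubinemia hepatic side effect score drawn from the DILIps training data, a prediction system for drug-induced liver injury; call rule not given here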;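 for HepSE cholecystitis: Cholecystitis-related hepatic side effect score drawn from the DILIps (drug-induced liver injury prediction) training data set; call rule not given here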;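 for HepSE cholelithiasis: hepatic side effect score for cholelithiasis, drawn from the DILIps training data for predicting drug-induced liver injury; call rule not given here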;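 for HepSE cirrhosis: cirrhosis hepatic side effect score taken from the DILIps (drug-induced liver injury prediction) training set; call rule not given here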;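 for HepSE elevated liver function tests: hepatic side effect score for raised liver function tests, as recorded in the DILIps training set used for predicting drug-induced liver injury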; for HepSE hepatic failure: call rule not given here
Hepatotoxicity [3] = system: Hepatotoxicity; remark: listed apart in the source;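 for HepSE bilirubinemia: bilirubinemia hepatic side effect score drawn from the DILIps training data, a prediction system for drug-induced liver injury; call rule not given here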;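 for HepSE cholecystitis: Cholecystitis-related hepatic side effect score drawn from the DILIps (drug-induced liver injury prediction) training data set; call rule not given here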;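 for HepSE cholelithiasis: hepatic side effect score for cholelithiasis, drawn from the DILIps training data for predicting drug-induced liver injury; call rule not given here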;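 for HepSE cirrhosis: cirrhosis hepatic side effect score taken from the DILIps (drug-induced liver injury prediction) training set; call rule not given here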;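 for HepSE elevated liver function tests: hepatic side effect score for raised liver function tests, as recorded in the DILIps training set used for predicting drug-induced liver injury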; for HepSE hepatic failure: call rule not given here
Hepatotoxicity [4] = system: Hepatotoxicity; remark: listed apart in the source;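 for HepSE bilirubinemia: bilirubinemia hepatic side effect score drawn from the DILIps training data, a prediction system for drug-induced liver injury; call rule not given here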;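 for HepSE cholecystitis: Cholecystitis-related hepatic side effect score drawn from the DILIps (drug-induced liver injury prediction) training data set; call rule not given here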;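 for HepSE cholelithiasis: hepatic side effect score for cholelithiasis, drawn from the DILIps training data for predicting drug-induced liver injury; call rule not given here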;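 for HepSE cirrhosis: cirrhosis hepatic side effect score taken from the DILIps (drug-induced liver injury prediction) training set; call rule not given here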;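 for HepSE elevated liver function tests: hepatic side effect score for raised liver function tests, as recorded in the DILIps training set used for predicting drug-induced liver injury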; for HepSE hepatic failure: call rule not given here
Hepatotoxicity [5] = system: Hepatotoxicity; remark: listed apart in the source; for HepSE hepatic failure: call rule not given here
Hepatotoxicity [6] = system: Hepatotoxicity; remark: listed apart in the source; for HepSE hepatic failure: call rule not given here
Hepatotoxicity [7] = system: Hepatotoxicity; remark: listed apart in the source
Hepatotoxicity [8] = system: Hepatotoxicity; remark: listed apart in the source
Hepatotoxicity [9] = system: Hepatotoxicity; remark: listed apart in the source
Hepatotoxicity [10] = system: Hepatotoxicity; remark: listed apart in the source
Hepatotoxicity [11] = system: Hepatotoxicity; remark: listed apart in the source
Hepatotoxicity [12] = system: Hepatotoxicity; remark: listed apart in the source
Hepatotoxicity [13] = system: Hepatotoxicity; remark: listed apart in the source
Hepatotoxicity [14] = system: Hepatotoxicity; remark: listed apart in the source

CC1(C)NC(=O)N(c2ccc([N+](=O)[O-])c(C(F)(F)F)c2)C1=O [NILUTAMIDE]
HepSE_bilirubinemia (Hepatotoxicity [1]; Liver): 0 | HepSE_cholecystitis (Hepatotoxicity [2]; Liver): 0 | HepSE_cholelithiasis (Hepatotoxicity [3]; Liver): 0 | HepSE_cirrhosis (Hepatotoxicity [4]; Liver): 0 | HepSE_elevated liver function tests (Hepatotoxicity [5]; Liver): 0 | HepSE_hepatic failure (Hepatotoxicity [6]; Liver): 0 | HepSE_hepatic necrosis (Hepatotoxicity [7]; Liver): 0 | HepSE_hepatitis (Hepatotoxicity [8]; Liver): 1 | HepSE_hepatomegaly (Hepatotoxicity [9]; Liver): 0 | HepSE_jaundice (Hepatotoxicity [10]; Liver): 0 | HepSE_liver disease (Hepatotoxicity [11]; Liver): 0 | HepSE_liver fatty (Hepatotoxicity [12]; Liver): 0 | HepSE_liver function tests abnormal (Hepatotoxicity [13]; Liver): 0 | HepSE_Combined Scores (Hepatotoxicity [14]; Liver): 1

CO[C@H]1/C=C/O[C@@]2(C)Oc3c(C)c(O)c4c(O)c(c(/C=N/N5CCN(C)CC5)c(O)c4c3C2=O)NC(=O)/C(C)=C\C=C\[C@H](C)[C@H](O)[C@@H](C)[C@@H](O)[C@@H](C)[C@H](OC(C)=O)[C@@H]1C [RIFAMPIN]
HepSE_bilirubinemia (Hepatotoxicity [1]): 0 | HepSE_cholecystitis (Hepatotoxicity [2]): 0 | HepSE_cholelithiasis (Hepatotoxicity [3]): 0 | HepSE_cirrhosis (Hepatotoxicity [4]): 0 | HepSE_elevated liver function tests (Hepatotoxicity [5]): 0 | HepSE_hepatic failure (Hepatotoxicity [6]): 0 | HepSE_hepatic necrosis (Hepatotoxicity [7]): 0 | HepSE_hepatitis (Hepatotoxicity [8]): 1 | HepSE_hepatomegaly (Hepatotoxicity [9]): 0 | HepSE_jaundice (Hepatotoxicity [10]): 1 | HepSE_liver disease (Hepatotoxicity [11]): 0 | HepSE_liver fatty (Hepatotoxicity [12]): 0 | HepSE_liver function tests abnormal (Hepatotoxicity [13]): 1 | HepSE_Combined Scores (Hepatotoxicity [14]): 3

CCC1=C[C@@H]2CN(C1)Cc1c([nH]c3ccccc13)[C@@](C(=O)OC)(c1cc3c(cc1OC)N(C)[C@H]1[C@@](O)(C(=O)OC)[C@H](OC(C)=O)[C@]4(CC)C=CCN5CC[C@]31[C@@H]54)C2 [VINORELBINE]
HepSE_bilirubinemia (Hepatotoxicity [1]): 0 | HepSE_cholecystitis (Hepatotoxicity [2]): 0 | HepSE_cholelithiasis (Hepatotoxicity [3]): 0 | HepSE_cirrhosis (Hepatotoxicity [4]): 0 | HepSE_elevated liver function tests (Hepatotoxicity [5]): 0 | HepSE_hepatic failure (Hepatotoxicity [6]): 0 | HepSE_hepatic necrosis (Hepatotoxicity [7]): 0 | HepSE_hepatitis (Hepatotoxicity [8]): 0 | HepSE_hepatomegaly (Hepatotoxicity [9]): 0 | HepSE_jaundice (Hepatotoxicity [10]): 0 | HepSE_liver disease (Hepatotoxicity [11]): 0 | HepSE_liver fatty (Hepatotoxicity [12]): 0 | HepSE_liver function tests abnormal (Hepatotoxicity [13]): 0 | HepSE_Combined Scores (Hepatotoxicity [14]): 0

COc1ccc(Cl)cc1C(=O)NCCc1ccc(S(=O)(=O)NC(=O)NC2CCCCC2)cc1 [GLYBURIDE]
HepSE_bilirubinemia (Hepatotoxicity [1]): 0 | HepSE_cholecystitis (Hepatotoxicity [2]): 0 | HepSE_cholelithiasis (Hepatotoxicity [3]): 0 | HepSE_cirrhosis (Hepatotoxicity [4]): 0 | HepSE_elevated liver function tests (Hepatotoxicity [5]): 0 | HepSE_hepatic failure (Hepatotoxicity [6]): 1 | HepSE_hepatic necrosis (Hepatotoxicity [7]): 0 | HepSE_hepatitis (Hepatotoxicity [8]): 1 | HepSE_hepatomegaly (Hepatotoxicity [9]): 0 | HepSE_jaundice (Hepatotoxicity [10]): 1 | HepSE_liver disease (Hepatotoxicity [11]): 0 | HepSE_liver fatty (Hepatotoxicity [12]): 0 | HepSE_liver function tests abnormal (Hepatotoxicity [13]): 0 | HepSE_Combined Scores (Hepatotoxicity [14]): 3

C[C@]12C=CC(=O)C=C1CC[C@H]1[C@@H]3C[C@@H](O)[C@](O)(C(=O)CO)[C@@]3(C)C[C@H](O)[C@@]12F [TRIAMCINOLONE]
HepSE_bilirubinemia (Hepatotoxicity [1]): 0 | HepSE_cholecystitis (Hepatotoxicity [2]): 0 | HepSE_cholelithiasis (Hepatotoxicity [3]): 0 | HepSE_cirrhosis (Hepatotoxicity [4]): 0 | HepSE_elevated liver function tests (Hepatotoxicity [5]): 0 | HepSE_hepatic failure (Hepatotoxicity [6]): 0 | HepSE_hepatic necrosis (Hepatotoxicity [7]): 0 | HepSE_hepatitis (Hepatotoxicity [8]): 0 | HepSE_hepatomegaly (Hepatotoxicity [9]): 1 | HepSE_jaundice (Hepatotoxicity [10]): 0 | HepSE_liver disease (Hepatotoxicity [11]): 0 | HepSE_liver fatty (Hepatotoxicity [12]): 0 | HepSE_liver function tests abnormal (Hepatotoxicity [13]): 0 | HepSE_Combined Scores (Hepatotoxicity [14]): 1

CCOC(=O)[C@H](CCc1ccccc1)N[C@H]1CCc2ccccc2N(CC(=O)O)C1=O [BENAZEPRIL]
HepSE_bilirubinemia (Hepatotoxicity [1]): 0 | HepSE_cholecystitis (Hepatotoxicity [2]): 0 | HepSE_cholelithiasis (Hepatotoxicity [3]): 0 | HepSE_cirrhosis (Hepatotoxicity [4]): 0 | HepSE_elevated liver function tests (Hepatotoxicity [5]): 0 | HepSE_hepatic failure (Hepatotoxicity [6]): 0 | HepSE_hepatic necrosis (Hepatotoxicity [7]): 0 | HepSE_hepatitis (Hepatotoxicity [8]): 1 | HepSE_hepatomegaly (Hepatotoxicity [9]): 0 | HepSE_jaundice (Hepatotoxicity [10]): 1 | HepSE_liver disease (Hepatotoxicity [11]): 0 | HepSE_liver fatty (Hepatotoxicity [12]): 0 | HepSE_liver function tests abnormal (Hepatotoxicity [13]): 0 | HepSE_Combined Scores (Hepatotoxicity [14]): 2
